The text below walks through data of PMC7841309, “Involvement of the Mitochondrial Protein Tyrosine Phosphatase PTPM1 in the Promotion of Conidiation, Development, and Pathogenicity in Colletotrichum graminicola” (Frontiers in Microbiology, 2021).

In this assay the target is T1, CgPTPM1 (Colletotrichum graminicola, UniProt E3QMN0).
T1 construct: gene GLRG_07262; full-length ORF (1869 bp cDNA, 622 residues) in pET28a, His-tag, E. coli BL21, Ni-NTA, about 74 kDa
Put plainly: colorimetric phosphatase assay, […] nm. Type of assay: biochemical. The note with it: 0.1 M Tris, 0.25 M NaCl, 5 mM EDTA, 10 mM DTT, pH 8.2, 37 C, 30 min.

T1 sequence (E3QMN0 entry or part of it): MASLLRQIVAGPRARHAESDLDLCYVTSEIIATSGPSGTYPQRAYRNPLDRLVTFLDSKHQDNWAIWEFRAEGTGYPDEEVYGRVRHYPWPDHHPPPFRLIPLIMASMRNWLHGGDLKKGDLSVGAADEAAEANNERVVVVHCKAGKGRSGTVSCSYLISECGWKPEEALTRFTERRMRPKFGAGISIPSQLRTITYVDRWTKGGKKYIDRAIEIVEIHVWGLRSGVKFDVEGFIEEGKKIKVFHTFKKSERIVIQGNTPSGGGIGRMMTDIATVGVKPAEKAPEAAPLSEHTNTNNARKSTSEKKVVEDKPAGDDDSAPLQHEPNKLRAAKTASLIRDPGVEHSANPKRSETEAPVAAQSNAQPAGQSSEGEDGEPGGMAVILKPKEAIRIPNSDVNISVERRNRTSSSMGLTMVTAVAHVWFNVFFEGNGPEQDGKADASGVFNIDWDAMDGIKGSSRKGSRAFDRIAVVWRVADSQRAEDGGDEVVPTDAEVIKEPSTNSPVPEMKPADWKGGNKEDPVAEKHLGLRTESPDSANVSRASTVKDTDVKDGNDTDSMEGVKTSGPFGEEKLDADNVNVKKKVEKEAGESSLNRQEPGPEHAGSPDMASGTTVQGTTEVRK

`O=[N+]([O-])c1ccc(OP(=O)(O)O)cc1` [pNPP, p-nitrophenyl phosphate]: the “colorimetric phosphatase assay, 405 nm” value was “Using pNPP as a substrate, the protein phosphatase activity was detected using the colorimetric method”.
